Reference: patent US20150258107A1, “METHODS AND COMPOSITIONS FOR TREATING DEPRESSION” (DemeRx, Inc., priority 2014, published 2015)

Key:
[1] = Pharmacokinetics of noribogaine in healthy male volunteers (plasma and urine, LCMSMS); conditions: for AUC0-216 / AUC0-∞ / Cmax / Tmax / t½: mean (SD)
Sprague-Dawley rats = assay: Fourteen day repeat dose toxicity in rats; assay type: in vivo, rat
Experimental: This study was conducted to evaluate the toxicity profile of noribogaine-HCl following oral (gavage) administration to the rat for 14 days following Table 2 below:
Male and female Sprague-Dawley rats, 10/sex/group, were administered 0, 25, 50 or 100 mg/kg noribogaine HCl daily by single oral gavage for 14 days. An additional 5 rats/sex/group in the 0 (control) and 100 mg/kg groups were retained for a 28 day recovery period during which no drug was administered. Six rats/sex/group (3 rats/sex controls) were similarly dosed and sampled on study days 1 and 14 for analysis of noribogaine-HCl concentrations in the blood.

dogs = assay: Fourteen day repeat dose toxicity in dogs; assay type: in vivo, dog
Experimental: The objective of this study was to determine the toxicity profile of noribogaine HCl given following oral (gavage) administration to dogs for 14 days according to the following Table 3 below:
Noribogaine HCl was administered to groups of 4 male and 4 female dogs by single oral gavage daily for 14 days at doses of 0, 0.5, 1.0 and 5.0 mg/kg/day. An additional group of 4 male and 4 female dogs received either the vehicle control or 5.0 mg/kg/day for 14 days and were held for an additional 28 days after cessation of dosing to assess recovery from any potential drug-induced changes. The study was conducted under GLP guidelines and included comprehensive examinations of clinical signs, body weight, clinical pathology parameters, ophthalmologic examinations, ECG recordings and analyses of plasma for bioanalytical measurement of drug levels at appropriate intervals during the study. At the termination of the dosing phase and at the termination of the recovery phase, all dogs were subjected to a complete post-mortem examination including gross examination of major organs and histologic examination of an extensive list of tissues. Additional sections of brain were obtained from cerebrum, cerebellus, brain stem and spinal cord and examined histologically to evaluate potential effects on brain histopathology. In addition, these sections were examined with immunohistochemical stains for GFAP for evidence of gliosis and Calbindin for a more comprehensive examination of cerebellar Purkinje cells.

Sprague-Dawley rat = assay: Single dose toxicity in rats; assay type: in vivo
Experimental: The objective of this study was to determine the toxicity and toxicokinetic profile of noribogaine HCl following a single oral (gavage) administration in the Sprague-Dawley rat. A single dose of 100, 300 and 800 mg/kg (achieved with doses of 400 mg/kg 3 h+/−30 min apart because of the limitations of maximum dose formulation concentration). Five male rats/group were used. […] Hypoactivity, vocalization, chewing movements, changes in respiration/posture, salivation, stimuli sensitivity, tremors, twitches and penile erection occurred prior to death. […] The NOAEL was determined to be 100 mg/kg.

[2] = Human pharmacokinetic study, single oral tablet, fasting healthy volunteers (serum levels); assay type: in vivo; conditions: 3, 10, 30 or 60 mg once orally, healthy volunteers
Experimental: In double blind studies, fasting healthy volunteers (6 per cohort) were treated once orally with a tablet of noribogaine HCl. In escalating cohorts, the volunteers received 3 mg, 10 mg, 30 mg or 60 mg noribogaine.

[3] = glucuronide in plasma after 30 mg noribogaine (n = 6)
[4] = glucuronide in plasma after 60 mg noribogaine (n = 6)
[5] = plasma, 30 mg and 60 mg dose groups

With `CC[C@H]1C[C@@H]2C[C@H]3c4[nH]c5ccc(OC6OC(C(=O)O)C(O)C(O)C6O)cc5c4CCN(C2)[C@@H]13` (stereo partly shown) [Noribogaine glucuronide, noribogaine glucuronide] the “Proportion of Cmax and AUC relative to noribogaine” value ([1]; both dose groups (30 mg, 60 mg)) was 3-4%, the AUC0-216 [1, 3] was 25.7 (9.1) ng · hr/ml and the “AUC0-∞” value [1, 3] was 25.8 (9.3) ng · hr/ml. The Cmax [1, 3] was 1.8 (0.6) ng/ml, the Tmax [1, 3] was 3.0 (0.6) hr and the t½ [1, 3] was 20.6 (4.9) hr. The AUC0-216 [1, 4] was 65.0 (21.5) ng · hr/ml, the “AUC0-∞” value [1, 4] was 67.1 (21.9) ng · hr/ml and the Cmax [1, 4] was 4.1 (1.2) ng/ml. For the same compound, the Tmax [1, 4] was 3.8 (1.2) hr, the t½ [1, 4] was 23.1 (3.0) hr and the Mean half-life [1, 5] was 21 to 23 h. The “Time of peak concentrations after noribogaine dosing” value [1, 5] was 3 to 4 h and the “Time by which detected in all subjects” value ([1]; plasma, after 30 mg and 60 mg noribogaine) was ≤ 0.75 h.

Compound `CC[C@@H]1C[C@H]2CC3c4[nH]c5ccc(O)cc5c4CCN(C2)C31.Cl` [noribogaine HCl] has a Body weight change (Sprague-Dawley rats; 100 mg/kg, females) of −2.6%, a Body weight change (Sprague-Dawley rats; 100 mg/kg, males) of −5.5% and a Food consumption change (Sprague-Dawley rats; 100 mg/kg, males and females) of −4.7%. For the same compound, the “Test article-related effects on mortality, clinical signs, ophthalmoscopy, hematology, coagulation, clinical chemistry, urinalysis, gross necropsy, histopathology” value (Sprague-Dawley rats; 25, 50 or 100 mg/kg daily oral gavage, 14 days) was “no test article-related effects”, the “Brain sections stained for GFAP or Calbindin” value (Sprague-Dawley rats; 14 days oral gavage) was “No treatment-related differences” and the NOAEL (Sprague-Dawley rats; 14 days oral gavage, highest dose tested) was 100 mg/kg. For the same compound, the Liver weight (Sprague-Dawley rats; mid- and high dose groups) was “Minor increases in liver weight”, the “Lacrimal gland changes (only target tissue)” value (dogs; 5 mg/kg/day) was “slight to moderate atrophy and degeneration of the acinar cells” and the “Lacrimal gland change after 28 days recovery” value (dogs; 5 mg/kg/day recovery group) was “clear evidence of regeneration”. For the same compound, the “Adverse effect in clinical observations, body weights, clinical pathology, ophthalmology, ECG, gross lesions” value (dogs; 0.5, 1.0, 5.0 mg/kg/day oral gavage 14 days, dosing or recovery phase) was “No evidence of adverse effect”, the NOAEL (dogs; 14 days oral gavage, based on lacrimal gland changes at 5 mg/kg/day) was 1 mg/kg/day and the Treatment related signs (Sprague-Dawley rat; 100 mg/kg) was “did not show any treatment related signs”. For the same compound, the “Rats with clinical signs (hypoactivity, vocalization, salivation, stimuli sensitivity, loss of limb function, lying on cage floor) persisting until Day 2” value (Sprague-Dawley rat; 300 mg/kg) was 3/5, the Mortality (Sprague-Dawley rat; 800 mg/kg (two doses of 400 mg/kg 3 h apart), oral gavage, 5 male rats) was “Mortality occurred in all male rats” and the “Time of mortality after administration of the second dose” value (Sprague-Dawley rat; 800 mg/kg group) was 2 to 3 h. For the same compound, the NOAEL (Sprague-Dawley rat; single oral gavage, male rats) was 100 mg/kg and the “Clinically relevant adverse effects” value [2] was “no clinically relevant adverse effects were observed”.
